What was measured:
[1] = system: association of MYC with the ODC1 gene promoter; experiment: chromatin immunoprecipitation (ChIP) of MYC at ODC1 promoter; assay type: cell-based; settings: 5 μM
Protocol: FIG. 1: MYCMI-7 (Compound Example 1) inhibits the MYC:MAX interaction in cells, bind MYC in vitro, and blocks MYC function. A) Molecular structure of MYCMI-7. B-E) split Gaussia luciferase (GLuc) assay. MYC or MYCN and MAX Gluc constructs were co-transfected into HeLa cells together with a firefly luciferase vector. 24 hours post transfection cells were treated with compounds, and after another 17-24 hours cells were harvested and both GLuc and firefly luciferase activities were measured. The mean of three different experiments is shown. Treatment with: B) 5 μM of MYCMI-7, 64 μM 10058-F4 or 5 μM JQ1, respectively, C) 6.5 μM MYCMI-7 on cells expressing MYC:MAX GLuc vs. GCN4:GCN4 GLuc, D) 5 μM MYCMI-7 and 5 μM ellipticine. E) 5 μM MYCMI-7 for various time points. F) in situ proximity ligation assay (isPLA). […] MYC:GAL4 was used as negative control in the isPLA assay. G) Quantification of isPLA dots. (H) Co-immunoprecipitation (co-IP) of endogenous MYC and MAX proteins from MCF7 cells after treatment with 5 μM MYCMI-7 at various times. IP=immunoprecipitation; W=western blot. I) Chromatin immunoprecipitation (ChIP) of MYC at the ODC1 target gene promoter after treatment of cells with 5 μM MYCMI-7 for 6 hours. J) MYC target gene ODC1 expression after treatment with 5 μM MYCMI-7, quantified by qPCR. K) ChIP of MYC at the ODC promoter in MCF7 cells after 5 μM MYCMI-7 treatment for indicated time points. L) Recombinant MYC bHLHZip protein domain immobilized onto a CM5 chip was subjected to various concentrations of MYCMI-7 and the complex of MYCbHLHZip-MYCMI-7 was measured as response units by SPR. The sensogram was produced by subtracting the blank response.
For western blot equal amounts of proteins ([…]) were separated on a 4-12% SDS-PAGE gel. Proteins were transferred to Immobilion-P membrane (Millipore) and detected by immunostaining and chemoluminescence (Immobilion western HRP substrate; Millipore). For immunoprecipitations 500-1000 μg of protein was used. […] Briefly, cells were crosslinked with 1% formaldehyde on ice for 6 minutes. […]

[2] = system: MYC+RAS-transformed rat embryonic fibroblasts; experiment: MYC+RAS transformation of REFs (foci, colonies in semi-solid medium); assay type: cell-based
Protocol: For anchorage-independent growth assay, cells were suspended in 250 μl 0.35% SeaPlaque agarose (InVitro) and seeded into 24 well plates which had previously been coated with a bottom layer of 250 μl 0.7% agarose. After 16 days, the colonies were stained with 100 μg/ml MTT (Sigma) overnight and colonies were counted. For foci formation assays, 3×10^4 REFs were seeded into 6 well plates. The following day the cells were transfected with the indicated plasmids (0.3 μg of each, a total of 0.6 μg per well). After another 24 hours compounds were added. The medium was changed every 2-3 days. When the cells had grown into confluency, medium containing 4% serum was added. After 14 days the number of foci was scored.

cyclin E = cyclin E protein expression; assay type: cell-based
Protocol: For western blot equal amounts of proteins ([…]) were separated on a 4-12% SDS-PAGE gel. Proteins were transferred to Immobilion-P membrane (Millipore) and detected by immunostaining and chemoluminescence (Immobilion western HRP substrate; Millipore). For immunoprecipitations 500-1000 μg of protein was used. […] Briefly, cells were crosslinked with 1% formaldehyde on ice for 6 minutes. Nuclear chromatin was sonicated on ice to fragments from 0.3 kb to 0.5 kb. Nuclear chromatin equivalent to 2.5×10^7 cells was immunoprecipitated with 2 μg antibody.

[3] = system: wt and p53-deficient HCT116 cells; experiment: WST1 assay in wt and p53-deficient HCT116 cells; assay type: cell-based; settings: titration
pharmacokinetics in mice = settings: 6.25 mg/kg i.p.
Protocol: Blood and brains were collected from three to four mice per group at 0, 1, 2, 4 and 24 hours following injection of 6.25 mg/kg ToM. Plasma samples were extracted using protein precipitation. Brain samples were extracted by homogenization in acetonitrile:DMSO, 95:5 using a gentleMACS Dissociater and gentleMACS™ M Tubes. The protein in the mouse plasma samples was removed by protein precipitation with acetonitrile containing the internal standard. After protein precipitation the study samples were centrifuged, and the resulting supernatant was analyzed. The acetonitrile:DMSO from the brain sample homogenates were spiked with the internal standard and then analyzed. All samples were analyzed by first separating them by reversed phase gradient LC and subsequently detecting them using positive electrospray ionization and multiple reaction monitoring (MRM).
(§1) First, we performed a pharmacokinetic study of the behavior of the molecule in mice.

[4] = oxidative metabolism in human liver microsomes
From the text: as §1

[5] = system: primary patient derived AML cell cultures and established AML/CML cell lines; experiment: primary AML cells and AML/CML cell lines, WST-1 assay
Protocol: C) Primary AML cells from patient biopsies where cultured for 72 hours in presence of MYCMI-7 at indicated doses cell growth was monitored by the WST-1 assay. One representative biological experiment out of at three, performed in triplicates is shown.
(§2) Cell growth and viability assays: Cell growth and viability was estimated in triplicates with WST-1 (Roche) or Resazurin sodium salt (Sigma-Aldrich) assays in medium at 37° C. and 5% CO2 for 2 hours after which absorbance or fluorescence, respectively, was measured with an Omega Fluostar (BMG Labtech) in a 96 well plate format. Cell viability by the Cyt60 assay was carried out as in manufacturers' protocol.

A375 melanoma cells = experiment: Apo-Tox Glo Triplex assay, A375; assay type: cell-based; settings: 3 days of treatment
Protocol: FIG. 4: MYCMI-7 induces apoptosis in malignant cells and growth arrest in normal cells. A) Cell cycle distribution analysis by flow cytometry of MYC-regulated P493-6 cells and normal rat embryo fibroblasts (REFs). Left panel, P493-6 synchronized in G0 by 24 hours treatment of […] doxycycline. Doxycycline was removed and the cells were harvested 48 hours after the addition of fresh medium containing DMSO or 5 μM MYCMI-7. Right panel, flow cytometry analysis of normal REFs treated with DMSO or 5 μM MYCMI-7. B) Apoptosis assay using the Cell Death Detection ELISA^plus kit. Left panel, immortalized Rat1 fibroblasts with different MYC status after 24 hours of 5 μM MYCMI-7 treatment, middle panel and right panels, normal REFs and normal peripheral blood lymphocytes, respectively, after 24 and 48 hours of 5 μM MYCMI-7 treatment. C) Measurement of viability and apoptosis by Apo-Tox Glo Triplex assay in A375 melanoma cells after 3 days of treatment with MYCMI-7 with the indicated concentrations. […] E) NHDFs treated with 3 μM MYCMI-7 for 72 hrs. Viability was measured by trypan blue exclusion assay. F) Cell growth measured with Cyt62 assay of primary normal human epidermal melanocytes (NHEM) treated for 72 hours with MYCMI-7, G) Viability measured by trypan blue exclusion assay of NHEM after treatment for 72 hours with MYCMI-7.

[6] = system: Human neuroblastoma cells; experiment: growth/viability of neuroblastoma cells with or without MYCN-amplification; settings: 6.25 μM, 24 hrs
Protocol: Cell proliferation/viability/metabolic activity was measured using the WST-1 assay. B) Human neuroblastoma cells with or without MYCN-amplification where treated with 6.25 μM MYCMI-7 or 64 μM 10058-F4 for 24 hrs. […] For the WST-1 assays the average of three different experiments performed in triplicates is shown.
as §2

[7] = target: T1, endogenous MYC:MAX interaction (Homo sapiens, UniProt P01106); experiment: in situ proximity ligation assay (isPLA), MYC:MAX; assay type: cell-based; settings: 5 μM, 24 hours, MCF-7 cells
T1 construct: endogenous in cells; host or cells: MCF7
Protocol: FIG. 1: MYCMI-7 (Compound Example 1) inhibits the MYC:MAX interaction in cells, bind MYC in vitro, and blocks MYC function. A) Molecular structure of MYCMI-7. B-E) split Gaussia luciferase (GLuc) assay. MYC or MYCN and MAX Gluc constructs were co-transfected into HeLa cells together with a firefly luciferase vector. 24 hours post transfection cells were treated with compounds, and after another 17-24 hours cells were harvested and both GLuc and firefly luciferase activities were measured. The mean of three different experiments is shown. […] G) Quantification of isPLA dots. […] J) MYC target gene ODC1 expression after treatment with 5 μM MYCMI-7, quantified by qPCR. […] L) Recombinant MYC bHLHZip protein domain immobilized onto a CM5 chip was subjected to various concentrations of MYCMI-7 and the complex of MYCbHLHZip-MYCMI-7 was measured as response units by SPR. […]
Briefly, cells were grown on collagen-coated chamber slides (Falcon), treated with compounds and then washed twice with PBS and fixed in ice cold methanol for 5-15 min at room temperature. […] Images were taken using an Axiovert 200M inverted microscope (Zeiss) and fluorescent dots were quantified using semi-automated analysis in ImageJ (http://imagej.net) and averaged to number of dots per cell. […]

[8] = system: MYC/BCL-XL-driven acute myeloblastic leukemia
Protocol: A) Schematic plan of the experiment B) Flow cytometry analysis of GFP^+ leukemic blasts in bone marrow on day 11 (n=5), day 15 (n=5), and at the end point (n=9) after daily i.p. injection of 12.5 mg/kg MYCMI-7, compared with vehicle (n=3) mice. C). H&E and MYC immunohistochemistry (IHC) stainings of spleen sections at the endpoint. Images were taken at 10× magnification. D) quantification of MYC IHC stainings of spleen sections at the endpoint. E) Western blot analysis of cleaved caspase 3 and H3K9me3 expression in spleens at endpoint after treating mice with MYCMI-7 or vehicle (3 mice from each condition). Actin was used as loading control. At the end points, the last injection was done 3 hrs before sacrifice.
3×10^5 cells were injected into each recipient C57BL mouse after irradiation (600 rad). AML-like leukemia initiation was confirmed via flow cytometry and Giemsa staining, at day 8 after transplantation. MYCMI-7 were then administrated intraperitoneally daily at a dose of 12.5 mg/kg. Liver, spleen and bone marrow were extracted at day 11, 15 and endpoint for measurement. In addition, body weight of mouse in each group was also collected every 4th day until the endpoint of the experiment.
We next investigated potential anti-tumor effects of MYCMI-7 in vivo. […] The mice were then sacrificed according to scheme illustrated in FIG. 7A.

[9] = system: Purified AML cells from spleens of moribund mice; experiment: purified MYC/BCL-XL AML cells in culture; settings: Mus musculus
FRA1:JUN interaction = target: T2, FRA1:JUN interaction (Homo sapiens, UniProt P05412+P15407); experiment: in situ proximity ligation assay (isPLA), FRA1:JUN; assay type: cell-based; settings: 5 μM, 24 hours, MCF-7 cells
T2 construct: endogenous in cells; host or cells: MCF7

[10] = endpoint, compared with vehicle

T1 sequence (P01106 16-454): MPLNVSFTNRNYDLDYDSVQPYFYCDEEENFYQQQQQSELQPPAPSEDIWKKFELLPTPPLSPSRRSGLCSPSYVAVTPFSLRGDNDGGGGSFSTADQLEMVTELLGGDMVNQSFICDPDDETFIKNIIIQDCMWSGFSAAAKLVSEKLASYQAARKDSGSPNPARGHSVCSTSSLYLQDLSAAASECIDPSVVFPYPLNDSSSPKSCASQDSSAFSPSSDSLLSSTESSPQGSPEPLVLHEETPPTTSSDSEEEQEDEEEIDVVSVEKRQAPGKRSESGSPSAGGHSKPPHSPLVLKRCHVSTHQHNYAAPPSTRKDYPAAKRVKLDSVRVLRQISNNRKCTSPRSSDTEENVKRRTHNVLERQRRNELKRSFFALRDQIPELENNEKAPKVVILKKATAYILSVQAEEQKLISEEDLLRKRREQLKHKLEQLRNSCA
T2 sequence (P15407 whole entry): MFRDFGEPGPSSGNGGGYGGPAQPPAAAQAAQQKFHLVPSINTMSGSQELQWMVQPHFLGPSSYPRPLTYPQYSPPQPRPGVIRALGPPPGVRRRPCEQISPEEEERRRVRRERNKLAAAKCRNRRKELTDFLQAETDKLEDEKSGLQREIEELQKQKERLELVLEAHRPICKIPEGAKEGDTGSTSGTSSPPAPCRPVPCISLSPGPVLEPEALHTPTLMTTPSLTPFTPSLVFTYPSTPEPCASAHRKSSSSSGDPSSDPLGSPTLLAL
T2 sequence (P05412 whole entry): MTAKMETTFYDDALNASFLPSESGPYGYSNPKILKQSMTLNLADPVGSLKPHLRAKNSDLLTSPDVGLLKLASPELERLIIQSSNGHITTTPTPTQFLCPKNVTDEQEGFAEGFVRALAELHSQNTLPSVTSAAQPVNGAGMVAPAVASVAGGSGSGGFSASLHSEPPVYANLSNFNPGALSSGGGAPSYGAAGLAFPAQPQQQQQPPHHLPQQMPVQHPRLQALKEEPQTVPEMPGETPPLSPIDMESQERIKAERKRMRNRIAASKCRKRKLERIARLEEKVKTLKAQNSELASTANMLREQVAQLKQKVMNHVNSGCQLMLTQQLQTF

SMILES: CCN(CC)CC[n+]1ccc2c(C)c3[nH]c4ccccc4c3c(C)c2c1 [MYCMI-7, 2-(5,11-Dimethyl-6H-25-pyrido[4,3-b]carbazol-2-yl)-N,N-diethylethanamine bromide]
- time after which reduction of MYC association with ODC1 promoter starts [1]: 2 h
- time from which MYC association with ODC1 promoter reaches a minimal level [1]: 4 h
- association of MYC with the ODC1 gene promoter (ChIP) ([1]; breast cancer cells): reduced
- formation of transformed foci and colonies in semi-solid medium [2]: strongly inhibited
- protein expression of cyclin E (cyclin E): unaffected
- growth response or MYC expression, wt versus p53-deficient cells [3]: no difference
- detection in the brain (pharmacokinetics in mice): could not be detected
- stability against oxidative metabolism [4]: stable
- efficiency compared with 10058-F4, JQ1 and cisplatin [5]: more efficient
- GI50 ([5]; Homo sapiens): 150 to 1300 nM
- GI50 (A375 melanoma cells): nanomolar range
- apoptosis (caspase activation) (A375 melanoma cells): induced apoptosis in a dose-dependent manner
- effect in MYCN-amplified versus non-amplified neuroblastoma cells [6]: significantly stronger
- tumor growth and viability in all neuroblastoma cell lines [6]: reduced tumor growth and viability
- inhibition of MYC:MAX interaction (isPLA) [7]: strongly inhibited
- body weight ([8]; 12.5 mg/kg daily i.p.): retained their weight
- mouse survival ([8]; 12.5 mg/kg daily i.p.): no significant difference
- side effects ([8]; 12.5 mg/kg daily i.p.): no signs of severe side effects
- GFP positive leukemic cells in bone marrow ([8]; 12.5 mg/kg daily i.p., day 15): undetectable
- leukemic cells in bone marrow ([8]; 12.5 mg/kg daily i.p., end point (20+/−4 days)): around 10%
- spleen structure ([8]; endpoint, compared to vehicle): retained a more normal spleen structure
- MYC expression in leukemic cells (IHC) [8, 10]: strongly reduced
- cleaved caspase 3 and H3K9me3 in leukemic spleens (western blot) [8, 10]: increased expression
- GI50 [9]: < 1000 nM
- inhibition of FRA1:JUN interaction (isPLA) (FRA1:JUN interaction): not
